Values quoted from earlier work in US9060510B2 (priority 2005, dated 2015).
Read-outs that look alike come from different tables or passages of the source.

Row | Molecule | water-solubility (at pH 7.0, 20° C.) [mg/mL] | water-solubility (at pH 4.0, 20° C.) [mg/mL]
1 | CCN(Cc1ccc(Cl)nc1)/C(=C/[N+](=O)[O-])NC [Nitempyram, (E)-N-(6-chloro-3-pyridylmethyl)-N-ethyl-N′-methyl-2-nitrovinylidenediamine] | > 590 | –
2 | (E)-1-(2-chloro-1,3-thiazol-5-yl)-3-methyl-2-nitroguanidine [Clothianidin] | – | 0.304
